In PMC7957565 (Molecules, 2021):

Experiments:
[1] = biological target: T1, AChE (from electric eel) (Electrophorus electricus, UniProt O42275); assay: biochemical; conditions: eeAChE; for IC50: mean ± spread; for inhibition at 100 µM: compound at 100 μM, read-out: AChE inhibition rate (%) in 100 μM
T1 construct: purchased Sigma-Aldrich

[2] = biological target: butyrylcholinesterase (BuChE, from equine serum) (Equus caballus, UniProt P81908); assay: biochemical; conditions: eqBuChE; mean ± spread
Sequence of butyrylcholinesterase (BuChE, from equine serum) (P81908 whole entry): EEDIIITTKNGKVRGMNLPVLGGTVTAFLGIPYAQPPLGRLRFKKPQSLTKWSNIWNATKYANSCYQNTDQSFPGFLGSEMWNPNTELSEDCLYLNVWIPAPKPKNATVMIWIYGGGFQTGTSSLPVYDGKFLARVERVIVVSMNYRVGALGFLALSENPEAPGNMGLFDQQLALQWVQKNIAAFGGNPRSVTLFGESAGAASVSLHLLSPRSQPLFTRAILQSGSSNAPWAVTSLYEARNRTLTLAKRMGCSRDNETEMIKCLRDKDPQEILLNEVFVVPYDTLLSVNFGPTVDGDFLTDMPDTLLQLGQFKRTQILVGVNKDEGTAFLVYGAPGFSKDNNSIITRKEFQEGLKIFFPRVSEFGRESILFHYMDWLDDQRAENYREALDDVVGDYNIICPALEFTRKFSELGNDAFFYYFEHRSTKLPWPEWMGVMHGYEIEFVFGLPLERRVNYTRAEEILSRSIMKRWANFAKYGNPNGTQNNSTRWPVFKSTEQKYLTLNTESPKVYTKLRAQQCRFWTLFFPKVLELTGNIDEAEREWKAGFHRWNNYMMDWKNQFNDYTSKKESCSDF

T1 sequence (O42275 24-633): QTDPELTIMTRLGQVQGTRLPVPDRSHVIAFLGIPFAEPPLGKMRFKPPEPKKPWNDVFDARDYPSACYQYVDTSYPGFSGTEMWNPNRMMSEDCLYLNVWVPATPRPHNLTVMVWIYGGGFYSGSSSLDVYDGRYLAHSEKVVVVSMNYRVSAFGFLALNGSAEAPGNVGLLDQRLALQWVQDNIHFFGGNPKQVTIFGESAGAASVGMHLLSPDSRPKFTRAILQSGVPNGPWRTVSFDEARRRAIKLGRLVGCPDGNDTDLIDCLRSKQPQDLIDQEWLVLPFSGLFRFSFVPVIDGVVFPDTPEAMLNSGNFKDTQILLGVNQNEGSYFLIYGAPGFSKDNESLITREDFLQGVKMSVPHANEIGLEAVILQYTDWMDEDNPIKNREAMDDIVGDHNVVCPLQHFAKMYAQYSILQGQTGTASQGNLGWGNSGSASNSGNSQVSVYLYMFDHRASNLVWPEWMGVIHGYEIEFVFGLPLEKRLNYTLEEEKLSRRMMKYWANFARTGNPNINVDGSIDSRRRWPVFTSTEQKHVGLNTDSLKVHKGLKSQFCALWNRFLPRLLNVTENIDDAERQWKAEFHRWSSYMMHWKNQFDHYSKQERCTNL

Compound `COc1ccc2[nH]c3c4c(c(/C=C/C(=O)NCC5CCN(Cc6ccccc6Cl)CC5)cc3c2c1)OC(C)(C)C=C4` [Compound 6bj, (E)-N-((1-(2-Chlorobenzyl)piperidin-4-yl)methyl)-3-(8-methoxy-3,3-dimethyl-3,11-dihydropyrano[3,2-a]carbazol-5-yl)acrylamide] has an IC50 [1] of 91.1 ± 4.41 µM and an IC50 [2] of 37.6 ± 0.56 µM.

Work on `COc1ccc2[nH]c3c4c(c(/C=C/C(=O)NCC5CCN(Cc6ccccc6F)CC5)cc3c2c1)OC(C)(C)C=C4` [Compound 6bh, (E)-N-((1-(2-Fluorobenzyl)piperidin-4-yl)methyl)-3-(8-methoxy-3,3-dimethyl-3,11-dihydropyrano[3,2-a]carbazol-5-yl)acrylamide] yielded an IC50 [1] of 23.6 ± 8.31 µM and an IC50 [2] of 31.5 ± 3.88 µM.

With `CC1(C)C=Cc2c(c(/C=C/C(=O)NCCC3CCN(Cc4ccccc4)CC3)cc3c2[nH]c2ccc(C(C)(C)C)cc23)O1` [Compound 6ca, (E)-N-(2-(1-Benzylpiperidin-4-yl)ethyl)-3-(8-(tert-butyl)-3,3-dimethyl-3,11-dihydropyrano[3,2-a]carbazol-5-yl)acrylamide] the IC50 [1] was 9 ± 0.86 µM and the IC50 [2] was 23.4 ± 0.95 µM.

For `CC1(C)C=Cc2c(c(/C=C/C(=O)NC3CCN(Cc4ccccc4F)CC3)cc3c2[nH]c2ccc(C(C)(C)C)cc23)O1` [Compound 6ab, (E)-3-(8-(tert-Butyl)-3,3-dimethyl-3,11-dihydropyrano[3,2-a]carbazol-5-yl)-N-(1-(2-fluorobenzyl)piperidin-4-yl)acrylamide], the inhibition at 100 µM [1] was 36.16 ± 0.31% and the IC50 [2] was 35.9 ± 5.13 µM.

Compound `Cc1ccccc1CN1CCC(CNC(=O)/C=C/c2cc3c([nH]c4ccc(C(C)(C)C)cc43)c3c2OC(C)(C)C=C3)CC1` [Compound 6bc, (E)-3-(8-(tert-Butyl)-3,3-dimethyl-3,11-dihydropyrano[3,2-a]carbazol-5-yl)-N-((1-(2-methylbenzyl)piperidin-4-yl)methyl)acrylamide] has an IC50 [1] of 4.26 ± 0.22 µM and an IC50 [2] of 19 ± 0.94 µM.

In the case of `CC1(C)C=Cc2c(c(/C=C/C(=O)NC3CCN(Cc4ccccc4)CC3)cc3c2[nH]c2ccc(C(C)(C)C)cc23)O1` [Compound 6aa, (E)-N-(1-Benzylpiperidin-4-yl)-3-(8-(tert-butyl)-3,3-dimethyl-3,11-dihydropyrano[3,2-a]carbazol-5-yl)acrylamide], the IC50 [1] is reported as 51.9 ± 2.24 µM and the IC50 [2] is reported as 22.9 ± 1.14 µM.

`COc1ccc2[nH]c3c4c(c(/C=C/C(=O)NCCC5CCN(Cc6ccccc6C)CC5)cc3c2c1)OC(C)(C)C=C4` [Compound 6cg, (E)-3-(8-Methoxy-3,3-dimethyl-3,11-dihydropyrano[3,2-a]carbazol-5-yl)-N-(2-(1-(2-methylbenzyl)piperidin-4-yl)ethyl)acrylamide] showed an IC50 [1] of 73 ± 1.93 µM and an IC50 [2] of 26.7 ± 1.76 µM.

In the case of `CC1(C)C=Cc2c(c(/C=C/C(=O)NCCC3CCN(Cc4ccccc4Cl)CC3)cc3c2[nH]c2ccc(C(C)(C)C)cc23)O1` [Compound 6cd, (E)-3-(8-(tert-Butyl)-3,3-dimethyl-3,11-dihydropyrano[3,2-a]carbazol-5-yl)-N-(2-(1-(2-chlorobenzyl)piperidin-4-yl)ethyl)acrylamide], the IC50 [1] is reported as 17 ± 1.51 µM and the IC50 [2] is reported as 17.3 ± 4.82 µM.

For `CC1(C)C=Cc2c(c(/C=C/C(=O)NC3CCN(Cc4ccccc4Cl)CC3)cc3c2[nH]c2ccc(C(C)(C)C)cc23)O1` [Compound 6ad, (E)-3-(8-(tert-Butyl)-3,3-dimethyl-3,11-dihydropyrano[3,2-a]carbazol-5-yl)-N-(1-(2-chlorobenzyl)piperidin-4-yl)acrylamide], the inhibition at 100 µM [1] was 42.5 ± 6.12% and the IC50 [2] was 38.8 ± 2.48 µM.

With `Cc1ccccc1CN1CCC(CCNC(=O)/C=C/c2cc3c([nH]c4ccc(C(C)(C)C)cc43)c3c2OC(C)(C)C=C3)CC1` [Compound 6cc, (E)-3-(8-(tert-Butyl)-3,3-dimethyl-3,11-dihydropyrano[3,2-a]carbazol-5-yl)-N-(2-(1-(2-methylbenzyl)piperidin-4-yl)ethyl)acrylamide] the IC50 [1] was 14.3 ± 0.36 µM and the IC50 [2] was 33.8 ± 0.51 µM.
